Assay results from US5830920A, “Sulfuric acid esters of sugar alcohols” (Hoffmann-La Roche Inc., priority 1995, dated 1998).

Experiments:
rat smooth muscle cells = experiment: Antiproliferative activity in cell cultures (rat smooth muscle cells), relative to heparin; type: cell-based; settings: 100 μg/ml, 48 h, heparin at same concentration = reference
Experimental: The antiproliferative activity of a substance is expressed as the ri value which is a comparative value to the corresponding activity of heparin and which was determined in cell cultures as follows: rat smooth muscle cells were applied to cell culture plates in a density of 8×10^3 cells/well, medium: DMEM (Dulbecco Modified Eagle Medium) with 10% FCS (fetal calf serum); cultivation at 37° C. and 5% CO2. After 4 hours, the number of adhered cells was determined and the substances to be tested (100 μg/ml, dissolved in H2 O) were added. […] Subsequently,the cells were incubated for 48 h. and thereafter the cell count was determined once more.
The inhibition i of the cell growth, that is, the reduction in the growth rate of the cells in per cent compared to the control, was calculated from these values. [formula] with the growth rate μ being calculated as [formula] in which Z is the number of cells and d is the time in days.
Finally, ri --the relative inhibitory activity--which expresses the activity of a substance (at 100 μg/ml) in comparison to the activity of heparin in the same concentration in the same experiment, was calculated [formula] Blood coagulation inhibition

thrombin = molecular target: T1, thrombin (Bos taurus, UniProt P00735); experiment: Inhibition of thrombin in the chromogenic substrate assay; type: biochemical; settings: plasma, antithrombin III, substrate S-2238, 37° C., pH 8.4
T1 construct: purchased Roche Basle
Experimental: (§1) The blood coagulation-inhibiting activity was determined as follows:
(§2) The buffer solution used consisted of 50 mM Tris buffer, 180 mM NaCl, 7.5 mM EDTA Na2, 1% PEG 6000 and 0.02% Tween 80, pH 8.4. The assay solution consisted of 50 μl of buffer, 30 μl of antithombin III (1 U/ml, Kabi Diagnostica) and 20 μl of plasma which contained various concentrations of test compounds. 30 μl of sample solution and 20 μl of water with 180 μl of thrombin (1 U/ml, thrombin reagent, Roche Basle) were added to the test cuvette in the automatic analyzer.

factor Xa = factor Xa (Bos taurus, UniProt P00743); experiment: Inhibition of factor Xa in the chromogenic substrate assay; type: biochemical; settings: plasma, antithrombin III, substrate S-2222, 37° C., pH 8.4
Sequence of factor Xa (P00743 234-492 limits assumed): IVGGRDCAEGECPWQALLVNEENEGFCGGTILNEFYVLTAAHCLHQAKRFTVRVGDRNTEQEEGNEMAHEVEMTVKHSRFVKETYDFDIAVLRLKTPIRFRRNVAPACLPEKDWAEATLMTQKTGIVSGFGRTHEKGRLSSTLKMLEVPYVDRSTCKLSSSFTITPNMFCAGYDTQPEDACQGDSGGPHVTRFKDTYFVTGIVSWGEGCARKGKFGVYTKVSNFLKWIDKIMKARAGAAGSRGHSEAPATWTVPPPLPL
Sequence of factor Xa (P00743 41-180 limits assumed): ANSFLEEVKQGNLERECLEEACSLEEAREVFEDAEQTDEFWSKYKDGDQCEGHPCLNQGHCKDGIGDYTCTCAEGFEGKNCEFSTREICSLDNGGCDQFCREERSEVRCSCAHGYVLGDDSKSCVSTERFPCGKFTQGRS
Experimental: [Worded in the source for another target; used here, by the source, with some conditions changed.] as §1, §2

[1] = test system: neointima in rat carotids; experiment: In vivo assay for antiproliferative activity in damaged rat carotids (neointima after balloonisation); set-up: species or system rat (male Wistar Kyoto); settings: 0.3 mg/kg/h i.v.
Experimental: In vivo assay for determining the antiproliferative activity of the compounds in accordance with the invention in damaged rat carotids.
The left carotids of male Wistar Kyoto rats (300-400 g) were, after narcosis, damaged with a 2F embolectomy catheter by pulling the catheter in the pumped-up state through the vessel three times. After wound management, the animals were kept in pairs with standard feed and water ad libidum.
The compounds were administered in concentrations of 0.3-1 mg/kg/h i.v. For this purpose, an osmotic minipump was implanted under the dorsal skin of the animals during the narcosis and was connected with the jugular vein. Thus, the compounds could be administered constantly during the entire test period of 14 days.
After 14 days, proliferative tissue (neointima) had formed, the size of which could be determined morphometrically on histological cross-sections.In order to do this, the rats were sacrificed and perfusion-fixed with glutaraldehyde.

Substance | Antiproliferative Activity ri (relative inhibitory activity compared to heparin) (rat smooth muscle cells) | Anticoagulant Activity IC50 Thrombin (thrombin) | Anticoagulant Activity IC50 Factor Xa (factor Xa) | effect on neointima compared to concentrated heparin ([1]; 14 days, comparison with heparin) | cross sectional area of the neointima in rat carotids 14 days after balloonisation ([1]; osmotic minipump)
1,6-Bis-O-[4-[2-(2,3,4,5,6-penta-O-sulfo-D-glucit-1-ylcarbamoyl)-ethyl]-phenyl]-2,3,4,5-tetra-O-sulfo-galactitol tetradecasodium salt [Example 6] | 0.7 | > 1000 µg/mL | > 1000 µg/mL | comparable effect to that of concentrated heparin | significantly reduced (p<0.01, t-test)
1,6-Bis-O-[6-(2,3,4,5,6-penta-O-sulfo-D-glucit-1-ylcarbamoyl)-naphthalen-2- yl]-2,3,4,5-tetra-O-sulfo-galactitol tetradecasodium salt [Example 16] | 2.1 | > 1000 µg/mL | > 1000 µg/mL | – | –
1,6-bis-O-[3-(2,3,4,5,6-penta-O-sulfo-D-glucit-1-ylcarbamoyl)-naphthalen-2-yl]-2,3,4,5-tetra-O-sulfo-galactitol tetradecasodium salt [Example 14] | 1.5 | > 1000 µg/mL | > 1000 µg/mL | – | –
1,6-bis-O-[3-(2,3,4,5-tetra-O-sulfo-D-arabinit-1-yloxy)-naphthalen-2-yl]-2,3,4,5-tetra-O-sulfo-galactitol dodecasodium salt [Example 40] | 1.4 | > 1000 µg/mL | > 1000 µg/mL | – | –
1,6-bis-O-[3-[benzyl 2,6-didesoxy-6-(2,3,4,5,6-penta-O-sulfo-D-gluconoylamino)-3,4-di-O-sulfo-a-D-glucopyranosid-2-ylcarbamoyl]-naphthalen-1-yl]-2,3,4,5-tetra-O-sulfo-galactitol octadecasodium salt [Example 56] | 1.7 | > 1000 µg/mL | > 1000 µg/mL | – | –
1,6-bis-O-[3-biphenyl-4-ylmethoxy-5-(2,3,4,5,6-penta-O-sulfo-D-glucit-1-ylcarbamoyl)-phenyl]-2,3,4,5-tetra-O-sulfo-galactitol tetradecasodium salt [Example 17] | 1.5 | > 1000 µg/mL | > 1000 µg/mL | – | –
1,6-bis-O-[4-[2-[4-(2,3,4,5,6-penta-O-sulfo-D-glucit-1-ylcarbamoyl)-phenyl]-ethyl]-phenyl]-2,3,4,5-tetra-O-sulfo-galactitol tetradecasodium salt [Example 11] | 2.2 | > 1000 µg/mL | > 1000 µg/mL | – | –
1,6-bis-O-[4-[2-[benzyl-2,6-didesoxy-6-(2,3,4,5,6-penta-O-sulfo-D-gluconoylamino)-3,4-di-O-sulfo-a-D-glucopyranosid-2-ylcarbamoyl]-ethyl]-phenyl]-2,3,4,5-tetra-O-sulfo-galactitol octadecasodium salt [Example 58] | 1.8 | > 1000 µg/mL | > 1000 µg/mL | – | –
1,6-bis-O-[4-[4-O-[4-[(E)-2-(2,3,4,5,6-penta-O-sulfo-D-glucit-1-ylcarbamoyl)-vinyl]-phenyl]-2,3-di-O-sulfo-D-threit-1-yloxy]-phenyl]-2,3,4,5-tetra-O- sulfo-galactitol octadecasodium salt [Example 48] | 2.7 | > 1000 µg/mL | > 1000 µg/mL | – | –
1,6-bis-O-[4-[4-O-[4-[(E)-2-[methyl-(2,3,4,5,6-penta-O-sulfo-D-glucit-1-yl)-carbamoyl]-vinyl]-phenyl]-2,3-di-O-sulfo-D-threit-1-yloxy]-phenyl]-2,3,4,5-tetra-O-sulfo-galactitol octadecasodium salt [Example 52] | 0.8 | > 1000 µg/mL | > 1000 µg/mL | – | –
1,6-bis-O-[4-[(E)-2-[benzyl 2,6-didesoxy-2-[4-(2,3,4,5,6-penta-O-sulfo-D-glucit-1-ylamino)-3-nitro-benzoyl-amino]-3,4-di-O-sulfo-a-D-glucopyranosid-6-ylcarbamoyl]-vinyl]-phenyl]-2,3,4,5-tetra-O-sulfo-galactitol octadecasodium salt [Example 61] | 2.4 | > 1000 µg/mL | > 1000 µg/mL | – | –
1,6-bis-O-[6-[(S)-2,3-bis-sulfooxy-propoxy]-3-(2,3,4,5,6-penta-O-sulfo-D-glucit 1-ylcarbamoyl)-naphthalen-2-yl]-2,3,4,5-tetra-O-sulfo-galactitol octadecasodium salt [Example 22] | 2.1 | > 1000 µg/mL | > 1000 µg/mL | – | –
1,6-bis-O-[6-[benzyl 2,6-didesoxy-2-[3-nitro-4-(2,3,4,5,6-penta-O-sulfo-D-glucit-1-ylamino)-benzoylamino]-3,4-di-O-sulfo-a-D-glucopyranosid-6-ylcarbamoyl]-naphthalen-2-yl]-2,3,4,5-tetra-O-sulfo-galactitol octadecasodium salt [Example 59] | 1.8 | > 1000 µg/mL | > 1000 µg/mL | – | –
1,6-didesoxy-2,3,4,5-tetra-O-sulfo-1,6-bis-[3-(2,3,4,5-tetra-O-sulfo-D-arabinit-1-yloxy)-naphthalen-2-ylcarbonylamino]-galactitol dodecasodium salt [Example 45] | 1.4 | > 1000 µg/mL | > 1000 µg/mL | – | –
2,3,4,5-tetra-O-sulfo-1,6-bis-O-[4-[4-(2,3,4,5-tetra-O-sulfo-D-arabinit-1- yloxy)-benzyl]-phenyl]-D-mannitol dodecasodium salt [Example 43] | 1.3 | > 1000 µg/mL | > 1000 µg/mL | – | –
Heparin [reference compound] | 1.0 | 1.9 µg/mL | 2.7 µg/mL | – | –
